From patent publication US8623919B2, “Method of synthesizing S-allyl-cysteine analogues and their therapeutic application in treating myocardial infarction” (Fudan University, priority 2007, dated 2014)

Columns and labels:
Bax = experiment: Western blot of Bax protein in left ventricle; assay type: in vivo, SD rats; details: MI rats, 50 mg/Kg/day, p<0.01
Source text: (§1) Animals were assigned and prepared the same as in Example 7, and dosages of SPRC and SAC were used the same in this example as in Example 7.

myocardial cells [1] = experiment: SOD activity (Hydroxylamine method) in hypoxia/reoxygenation injured myocardial cells; assay type: cell-based, Sprague-Dawley (SD) rat
Experimental: Myocardial cell samples were obtained from the same procedure of Example 1, the experiment groups were divided and hypoxia/reoxygenation experiments were performed on Control group, Vehicle group, SAC and analogue groups, same as the experiments in Example 1 with the same dosages and same conditions. Myocardial cells were obtained from each sample (10^6 myocardial cells/sample) from the Control group, Vehicle group, SAC and analogue groups. The cells were lysed under sterilized condition, and SOD (superoxide dismutase) activities in each sample of the cells were determined by Hydroxylamine method (a conventional method well known in the arts) using each microgram of protein per 1 milliliter reaction solution inhibits SOD activity to its 50% of original activity, in which the amount of SOD used in the reaction as standard of 1 unit of SOD activity.

H9c2 cells = experiment: Endogenous H2S level in H2O2 injured H9c2 cells; assay type: cell-based; details: SPRC treatments
Source text: Similar experiments are done on cultured H9c2 cardiac muscle cells groups with the same experiment condition and different dosages of SPRC treatments. The results of the experiments confirm that endogenous H2S level in H2O2 injured H9c2 cells is elevated by SPRC treatments. […] It is also observed that the apoptosis of hypoxic myocardial cells is decreased, the survival rate of the in H2O2 injured H9c2 cells is increased and the LDH releasing from the in H2O2 injured H9c2 cells are reduced by three dosages of SPRC treatment.

CSE mRNA = experiment: RT-PCR of CSE mRNA in left ventricle; assay type: in vivo, SD rats; details: MI rats, 50 mg/Kg/day
Source text: as §1
(§2) To further verify the effects of SPRC and SAC, the expressions of Bcl-2, Bax and CSE mRNA were accessed by RT-PCR (FIG. 17). An isoform of the CSE gene was detected (GenBank; access no. AY641456). The relative amounts of CSE mRNA in Left ventricular subjected to MI were increase 3.3-fold and 1.5-fold following SPRC and SAC exposure as compared to the MI group.

rats following MI injury [2] = experiment: Serum LDH in rats (sham or MI); assay type: in vivo, SD rats; details: Sham rats; 50 mg/Kg/day intraperitoneal
Experimental: as §1
(§3) Serum CK levels were detected with diagnostic kit (NJBI, China) according to the instructions. LDH were determined calorimetrically with a spectrophotometer. Lipid peroxidation was measured in terms of MDA content using the thiobarbituric acid (TBA) assay. […] With regard to lipid peroxidation, the levels of MDA in MI groups increased at 48 h after myocardial infarction. […] (FIG. 14)

Bax mRNA = experiment: RT-PCR of Bax mRNA in left ventricle; assay type: in vivo, SD rats; details: MI rats, 50 mg/Kg/day, p<0.05
Source text: as §1, §2

rats following MI injury [3] = experiment: ECG in rats following MI injury; assay type: in vivo, SD rats; details: 50 mg/Kg/day, day 10, 48 hr after the induction of MI
Experimental: SPRC and SAC were dissolved in saline (vehicle). Male SD rats (weight 200-250 g) were randomly assigned to […] treatment groups: group (1) Sham group: Sham-treated with saline (n=4), (2) Sham+SPRC group: Sham-treated with SPRC (50 mg/Kg/day) (n=4), (3) Sham+SAC group: Sham-treated with SAC (50 mg/Kg/day) (n=4), (4) MI group: MI treated with saline (n=8), (5) MI+SPRC group: MI treated with SPRC (50 mg/Kg/day) (n=8), (6) MI+SAC group: MI treated with SAC (50 mg/Kg/day) (n=8). Rats were pre-treated for seven days with each SAC analogues respectively via an intraperitoneal injection once daily before they were used for MI model studies. […] Briefly, the rats were anesthetized with 7% choral hydrate (60 mg/kg intraperitoneal injection), endotracheally intubated and mechanically ventilated with room air, respiratory rate 100 breaths/min, tidal volume 2.5 ml with a rodent ventilator (DHX-150, China). ECG was recorded in the anaesthetized animal for a period of one minute using the Animal Mflab200 amplifier (Produced in China). A left thoracotomy was performed and the third intercostal space was exposed. […] Then incisions were sutured and the chests were closed. […] Forty eight hours after the surgery, ECG was recorded for each rat in each group. […] To evaluate the effect of SPRC and SAC on MI, infarct size were measured after TTC staining (FIG. 12).

rats following MI injury [4] = experiment: MDA content (TBA assay) in rats (sham or MI); assay type: in vivo, SD rats; details: Sham rats; 50 mg/Kg/day intraperitoneal
Experimental: as §1, §3

CSE = target: T1, CSE (Rattus norvegicus, UniProt P18757); experiment: Left ventricular CSE activity in tissue homogenates of rats; assay type: in vivo, SD rats; details: 50 mg/Kg/day; for CSE activity: left ventricle
T1 construct: from tissue; host or cells: rat left ventricle (homogenate), myocardial infarction model
T1 sequence (P18757 whole entry): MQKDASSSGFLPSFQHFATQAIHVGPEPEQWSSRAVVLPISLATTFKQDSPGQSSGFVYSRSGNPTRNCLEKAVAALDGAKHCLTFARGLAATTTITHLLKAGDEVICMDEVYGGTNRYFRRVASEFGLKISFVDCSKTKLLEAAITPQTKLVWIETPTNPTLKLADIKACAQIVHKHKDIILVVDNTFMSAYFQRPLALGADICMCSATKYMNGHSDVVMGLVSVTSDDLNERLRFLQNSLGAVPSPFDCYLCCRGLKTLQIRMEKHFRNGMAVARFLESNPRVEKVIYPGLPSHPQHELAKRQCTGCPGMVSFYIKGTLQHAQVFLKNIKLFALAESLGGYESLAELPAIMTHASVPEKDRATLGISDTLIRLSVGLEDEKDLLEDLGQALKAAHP
Experimental: as §1
The plasma levels of H2S in each treatment group were determined since CSE mediates the endogenous production of H2S in mammals. Plasma H2S concentrations in MI group rats at 48 h after MI induction were 34.7±5.6 μM (n=8). […] Left ventricular CSE activity was analyzed in the tissue homogenates from each treatment group (n=6). CSE activity was 1.58±0.15 μmol/g protein/hr in left the ventricular tissues in MI group and 2.19±0.32 μmol/g protein/hr in the MI+SAC treated rats.
SPRC administered rats had the highest CSE activity of 2.58±0.07 μmol/g protein/hr (p<0.01) (FIG. 15B). This observation correlated with the observed increases in H2S concentrations in the same treatment groups.

myocardial cells [5] = experiment: Lipid peroxidation (MDA, TBA) in hypoxia/reoxygenation injured myocardial cells; assay type: cell-based, Sprague-Dawley (SD) rat; details: 10^−5 mol/L
Experimental: Myocardial cell samples were obtained from the same procedure of Example 1, the experiment groups were divided and hypoxia/reoxygenation experiments were performed on Control group, Vehicle group, SAC and analogue groups, same as the experiments in Example 1 with the same dosages and same conditions. Myocardial cells were obtained from each sample (10^6 myocardial cells/sample) from the Control group, Vehicle group, SAC and analogue groups. The cells were lysed under sterilized condition, and lipid peroxidation experiments on the samples were performed. Since oxygen free radical attacks poly unsaturated fatty acid in biomembrane, inducing lipid peroxidation and producing MDA (malondialdehyde). MDA can react with thiobarbituric acid (TBA), forms red product, which can be detected in spectrophotometer at 532 nm. […] The inhibition effect could be reversed by PAG.

C#CCSC[C@H](N)C(=O)O [SPRC, S-propargyl-cysteine]
Bax protein levels (Bax): down-regulated | Mn-SOD activity in mitochondria (myocardial cells [1]; 10^−5 mol/L): able to elevate | effect of PAG on elevating Mn-SOD activity (myocardial cells [1]; with PAG): PAG also reversed | endogenous H2S level (H9c2 cells): elevated | relative amounts of CSE mRNA, increase as compared to the MI group (CSE mRNA): 3.3 fold | LDH (rats following MI injury [2]): 2612 ± 189 U/L | Bax gene expression (Bax mRNA): down regulated | ST-segment elevation in ECG (rats following MI injury [3]): less elevated ST-segment | MDA (rats following MI injury [4]): 3.79 ± 0.40 nmol/mL | CSE activity (CSE; MI rats): 2.58 ± 0.07 μM/mgprot | Left ventricular CSE activity (CSE; MI rats, left ventricular tissue homogenates, MI group 1.58±0.15): 2.58±0.07 μmol/g protein/hr | CSE activity (CSE; Sham rats): 2.41 ± 0.12 μM/mgprot | lipid peroxidation (MDA) (myocardial cells [5]): inhibited
